According to patent US7759291B2, “Pyrazole compounds and use thereof” (Sumitomo Chemical Company, Limited, priority 2004, dated 2010):

Tests used:
Tetranychus urticae = assay: Test Example 1: spray test against Tetranychus urticae on brush bean, Controlling Rate; format: in vivo; conditions: 200 ppm, 30 ml sprayed over brush bean (Phaseolus vulgaris) with female adults
Protocol: The formulation obtained according to Formulation Example 1 using the present invention compounds (1) to (30) and the comparative compound (a) described below respectively, was diluted with water so that the concentration of the present invention compound or the comparative compound came to 200 ppm. About twenty female adults of Tetranychus urticae were set free on brush bean (Phaseolus vulgaris) in the primary leaf stage, which had been potted in a plastic cup for 7 days after the seeding. After 1 day, a 30 ml of the diluted formulation described-above was sprayed over the plant. On the 8th and 13th day after the application, the numbers of lived Tetranychus urticae on the leaf of brush bean plant were examined, and the Controlling Rates were calculated by the following scheme. Controlling Rate=100×{1−(a number of lived Tetranychus urticae in the treatment)/(a number of lived Tetranychus urticae in the non-treatment)}

[1] = tested on: Adoxophyes orana fasciata; assay: Test Example 2: spray test on apple seedling against first-instar larvae of Adoxophyes orana fasciata, rate of dead pests; format: in vivo; conditions: 200 ppm, 30 ml sprayed over apple seedling, 7th day after application
Protocol: The formulation obtained according to Formulation Example 1 using the present invention compound (25): [drawing 138] and the comparative compound (b) described below respectively, was diluted with water so that the concentration of the present invention compound or the comparative compound came to 200 ppm. 30 ml of the diluted formulation described above was sprayed over the seedling of apple, which had been potted in plastic cup for 28 days after seeding about 15 cm height. After the sprayed solution was dried, about sixty first-instar larvae of Adoxophyes orana fasciata were set free on the apple seedling. On the 7 th day after application, the number of surviving or dyed Adoxophyes orana fasciata on the apple seedling was examined, and the rate of dead pests was calculated.

Structure (SMILES) | Controlling Rate (Tetranychus urticae; 8th day after the application) | Controlling Rate (Tetranychus urticae; 13th day after the application) | rate of dead pests [1]
Cc1nn(C)c(Oc2ccc(Oc3ccc(C(F)(F)F)cc3)cc2)c1C=NOCc1ccccc1 [comparative compound (a)] | less than 30% | less than 30% | 
Cc1nn(C)c(Oc2ccc(Oc3ccc(C(F)(F)F)cc3)cc2)c1C=O [comparative compound (b)] |  |  | less than 80%
C=CCOc1ccc(Oc2ccc(Oc3c(C)c(C)nn3C)cc2)cc1 [present invention compound (25)] |  |  | ≥ 90%
